Among the data in patent US20250346585A1 (Alexion Pharmaceuticals, Inc., priority 2022, published 2025) are IC50 values, retold here.

Where a name gives a salt, the structure may show the parent alone.

Human complement C1s enzyme, sequence (P09871 438-688 limits assumed): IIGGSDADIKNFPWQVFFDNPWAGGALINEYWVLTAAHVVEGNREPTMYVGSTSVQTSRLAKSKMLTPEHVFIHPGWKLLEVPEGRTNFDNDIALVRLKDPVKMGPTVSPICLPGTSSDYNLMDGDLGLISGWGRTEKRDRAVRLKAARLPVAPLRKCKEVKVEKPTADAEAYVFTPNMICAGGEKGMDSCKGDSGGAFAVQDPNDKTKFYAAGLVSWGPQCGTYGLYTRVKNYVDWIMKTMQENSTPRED
Human complement C1s enzyme, sequence (P09871 16-437 partner limits assumed): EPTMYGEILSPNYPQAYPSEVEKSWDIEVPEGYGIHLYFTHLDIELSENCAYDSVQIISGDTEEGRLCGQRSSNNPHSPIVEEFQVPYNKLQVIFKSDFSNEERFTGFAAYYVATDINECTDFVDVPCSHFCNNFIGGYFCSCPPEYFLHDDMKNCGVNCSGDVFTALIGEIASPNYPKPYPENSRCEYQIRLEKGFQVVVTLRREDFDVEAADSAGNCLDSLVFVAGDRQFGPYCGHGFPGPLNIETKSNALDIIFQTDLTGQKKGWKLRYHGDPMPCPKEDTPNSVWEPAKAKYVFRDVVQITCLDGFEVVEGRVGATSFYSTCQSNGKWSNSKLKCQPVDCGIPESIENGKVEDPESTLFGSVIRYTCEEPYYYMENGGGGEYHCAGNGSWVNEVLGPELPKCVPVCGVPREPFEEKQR

For this test, the target named is Human complement C1s enzyme (Homo sapiens (Human), UniProt P09871). Put plainly: Human C1s enzyme assay. Type of test: biochemical. Particulars: Human C1s enzyme assay of Example 3; read-out: IC50 (Stars). Put shortly:
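IC50 derived by nonlinear regression of rate versus concentration, with rate taken from A405 kinetics (30 s intervals, 30 min) after adding 100 μM each Z-L-Lys-SBzl and DTNB. C1s from human serum, 1.16 nM, exposed to compound for 5 min at RT beforehand; buffer 50 mM Tris, 1 M NaCl, pH 7.5.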
One may read the IC50 as the concentration at which inhibition is half-maximal. `C[C@@H](NC(=O)[C@@H]1C[C@@H](OC(F)F)CN1C(=O)CNC(=O)c1ccc(Oc2ccc(Cl)cc2)cc1)c1cc(C(=N)N)cs1` [Compound 43, (2S,4R)—N—((R)-1-(4-carbamimidoylthiophen-2-yl)ethyl)-1-((4-(4-chlorophenoxy)benzoyl)glycyl)-4-(difluoromethoxy)pyrrolidine-2-carboxamide]: the IC50 is less than 0.1 µM.
For the compound `COC[C@@]12C[C@@H]1N(C(=O)CNC(=O)c1ccc(Oc3ccc(F)cc3)cc1)[C@H](C(=O)N[C@H](C)c1cc(C(=N)N)cs1)C2` [Compound 44, (1S,3S,5R)—N—((R)-1-(4-carbamimidoylthiophen-2-yl)ethyl)-2-((4-(4-fluorophenoxy)benzoyl)glycyl)-5-(methoxymethyl)-2-azabicyclo[3.1.0]hexane-3-carboxamide], the IC50 was less than 0.1 µM.
For `C[C@H]1C[C@@H](C(=O)N[C@H](C)c2cc(C(=N)N)cs2)N(C(=O)CNC(=O)c2ccc(Oc3ccc(F)cc3)cc2)C1` [Compound 45, (2S,4S)—N—((R)-1-(4-carbamimidoylthiophen-2-yl)ethyl)-1-((4-(4-fluorophenoxy)benzoyl)glycyl)-4-methylpyrrolidine-2-carboxamide] the value was less than 0.1 µM.
Take `C[C@H]1C[C@@H](C(=O)N[C@H](C)c2cc(C(=N)N)cs2)N(C(=O)CNC(=O)c2ccc3c(c2)-c2ccccc2C3(F)F)C1` [Compound 46, (2S,4S)—N—((R)-1-(4-carbamimidoylthiophen-2-yl)ethyl)-1-((9,9-difluoro-9H-fluorene-3-carbonyl)glycyl)-4-methylpyrrolidine-2-carboxamide]: the IC50 was less than 0.1 µM.
For `CC(C)c1ccc(Oc2ccc(C(=O)NCC(=O)N3C[C@H](OC(F)F)C[C@H]3C(=O)N[C@H](C)c3cc(C(=N)N)cs3)cc2)cc1` [Compound 47, (2S,4R)—N—((R)-1-(4-carbamimidoylthiophen-2-yl)ethyl)-4-(difluoromethoxy)-1-((4-(4-isopropylphenoxy)benzoyl)glycyl)pyrrolidine-2-carboxamide] the value was less than 0.1 µM; for `N=C(N)c1csc(CNC(=O)[C@@H]2CC3(CN2C(=O)CNC(=O)c2ccc(-c4ccccc4)cn2)OCCO3)c1` [Compound 48, (S)—N-((4-carbamimidoylthiophen-2-yl)methyl)-7-((5-phenylpicolinoyl)glycyl)-1,4-dioxa-7-azaspiro[4.4]nonane-8-carboxamide], less than 0.1 µM.
For `C[C@@H](NC(=O)[C@@H]1C[C@@H](OC(F)F)CN1C(=O)CNC(=O)c1ccc(Oc2ccc(C#N)cc2)cc1)c1cc(C(=N)N)cs1` [Compound 49, (2S,4R)—N—((R)-1-(4-carbamimidoylthiophen-2-yl)ethyl)-1-((4-(4-cyanophenoxy)benzoyl)glycyl)-4-(difluoromethoxy)pyrrolidine-2-carboxamide] the value was less than 0.1 µM; for `N=C(N)c1csc(CNC(=O)[C@@H]2C[C@@H](OC(F)F)CN2C(=O)CNC(=O)c2ccc3c(c2)-c2ccccc2C3(F)F)c1` [Compound 50, (2S,4R)—N-((4-carbamimidoylthiophen-2-yl)methyl)-1-((9,9-difluoro-9H-fluorene-3-carbonyl)glycyl)-4-(difluoromethoxy)pyrrolidine-2-carboxamide], less than 0.1 µM.
As for `N=C(N)c1csc(CNC(=O)[C@@H]2C[C@](F)(CF)CN2C(=O)CNC(=O)c2ccc3c(c2)-c2ccccc2C3(F)F)c1` [Compound 52, (2S,4R)—N-((4-carbamimidoylthiophen-2-yl)methyl)-1-((9,9-difluoro-9H-fluorene-3-carbonyl)glycyl)-4-fluoro-4-(fluoromethyl)pyrrolidine-2-carboxamide], the figure is less than 0.1 µM; as for `C[C@@H](NC(=O)[C@@H]1C[C@]2(CO)C[C@@H]2N1C(=O)CNC(=O)c1ccc2c(c1)-c1ccccc1C2(F)F)c1cc(C(=N)N)cs1` [Compound 53, (1S,3S,5R)—N—((R)-1-(4-carbamimidoylthiophen-2-yl)ethyl)-2-((9,9-difluoro-9H-fluorene-3-carbonyl)glycyl)-5-(hydroxymethyl)-2-azabicyclo [3.1.0]hexane-3-carboxamide], less than 0.1 µM.
Turning to `C[C@@H](NC(=O)[C@@H]1C[C@@H](S(C)(=O)=O)CN1C(=O)CNC(=O)c1ccc(Oc2ccc(F)cc2)cc1)c1cc(C(=N)N)cs1` [Compound 54, (2S,4R)—N—((R)-1-(4-carbamimidoylthiophen-2-yl)ethyl)-1-((4-(4-fluorophenoxy)benzoyl)glycyl)-4-(methylsulfonyl)pyrrolidine-2-carboxamide], the concentration for half-maximal inhibition (IC50) was less than 0.1 µM.
As for `N=C(N)c1csc(CNC(=O)[C@@H]2CC3(CN2C(=O)CNC(=O)c2ccc4c(c2)-c2ccccc2C4(F)F)OCCO3)c1` [Compound 55, (S)—N-((4-carbamimidoylthiophen-2-yl)methyl)-7-((9,9-difluoro-9H-fluorene-3-carbonyl)glycyl)-1,4-dioxa-7-azaspiro[4.4]nonane-8-carboxamide], the figure is less than 0.1 µM; as for `C[C@@H](NC(=O)[C@@H]1CC2(CN1C(=O)CNC(=O)c1ccc3c(c1)-c1ccccc1C3(F)F)OCCO2)c1ccc(C(=N)N)s1` [Compound 56], less than 0.1 µM.
On to `C[C@@H](NC(=O)[C@@H]1C[C@@H](OC(F)F)CN1C(=O)CNC(=O)c1ccc(Oc2ccc(F)cc2)cc1)c1ccc(C(=N)N)s1` [Compound 57, (2S,4R)—N—((R)-1-(5-carbamimidoylthiophen-2-yl)ethyl)-4-(difluoromethoxy)-1-((4-(4-fluorophenoxy)benzoyl)glycyl)pyrrolidine-2-carboxamide], for which the IC50 is less than 0.1 µM.
As for `COC[C@@]1(F)C[C@@H](C(=O)NCc2cc(C(=N)N)cs2)N(C(=O)CNC(=O)c2ccc3c(c2)-c2ccccc2C3(F)F)C1` [Compound 58, (2S,4R)—N-((4-carbamimidoylthiophen-2-yl)methyl)-1-((9,9-difluoro-9H-fluorene-3-carbonyl)glycyl)-4-fluoro-4-(methoxymethyl)pyrrolidine-2-carboxamide], the figure is less than 0.1 µM; as for `Cc1ccccc1[C@H]1C[C@@H](C(=O)N[C@H](C)c2cc(C(=N)N)cs2)N(C(=O)CNC(=O)c2ccc(Oc3ccc(F)cc3)cc2)C1` [Compound 59, (2S,4R)—N—((R)-1-(4-carbamimidoylthiophen-2-yl)ethyl)-1-((4-(4-fluorophenoxy)benzoyl)glycyl)-4-(o-tolyl)pyrrolidine-2-carboxamide], less than 0.1 µM.
For `CC1(C)c2ccccc2-c2cc(C(=O)NCC(=O)N3CC4(C[C@H]3C(=O)NCc3cc(C(=N)N)cs3)OCCO4)ccc21` [Compound 60, (S)—N-((4-carbamimidoylthiophen-2-yl)methyl)-7-((9,9-dimethyl-9H-fluorene-3-carbonyl)glycyl)-1,4-dioxa-7-azaspiro[4.4]nonane-8-carboxamide] the value was less than 0.1 µM; for `C[C@@H](NC(=O)[C@@H]1C[C@@H](S(C)(=O)=O)CN1C(=O)CNC(=O)c1ccc2c(c1)-c1ccccc1C2(F)F)c1cc(C(=N)N)cs1` [Compound 61, (2S,4R)—N—((R)-1-(4-carbamimidoylthiophen-2-yl)ethyl)-1-((9,9-difluoro-9H-fluorene-3-carbonyl)glycyl)-4-(methylsulfonyl)pyrrolidine-2-carboxamide], less than 0.1 µM; for `C[C@@H]1C[C@@H](C(=O)N[C@H](C)c2cc(C(=N)N)cs2)N(C(=O)CNC(=O)c2ccc3c(c2)-c2ccccc2C3(F)F)C1` [Compound 62, (2S,4R)—N—((R)-1-(4-carbamimidoylthiophen-2-yl)ethyl)-1-((9,9-difluoro-9H-fluorene-3-carbonyl)glycyl)-4-methylpyrrolidine-2-carboxamide], less than 0.1 µM.
As for `C[C@@H]1C[C@@H](C(=O)N[C@H](C)c2cc(C(=N)N)cs2)N(C(=O)CNC(=O)c2ccc(Oc3ccc(F)cc3)cc2)C1` [Compound 63, (2S,4R)—N—((R)-1-(4-carbamimidoylthiophen-2-yl)ethyl)-1-((4-(4-fluorophenoxy)benzoyl)glycyl)-4-methylpyrrolidine-2-carboxamide], the figure is less than 0.1 µM; as for `C[C@@H](NC(=O)[C@@H]1C[C@@H](OC(F)F)CN1C(=O)CNC(=O)c1ccc(Oc2ccc(C3CC3)cc2)cc1)c1cc(C(=N)N)cs1` [Compound 64, (2S,4R)—N—((R)-1-(4-carbamimidoylthiophen-2-yl)ethyl)-1-((4-(4-cyclopropylphenoxy)benzoyl)glycyl)-4-(difluoromethoxy)pyrrolidine-2-carboxamide hydrochloride], less than 0.1 µM.
For `C[C@@H](NC(=O)[C@@H]1C[C@@H](OC(F)F)CN1C(=O)CNC(=O)c1ccc(Oc2ccc(C(F)F)cc2)cc1)c1cc(C(=N)N)cs1` [Compound 65, (2S,4R)—N—((R)-1-(4-carbamimidoylthiophen-2-yl)ethyl)-4-(difluoromethoxy)-1-((4-(4-(difluoromethyl)phenoxy)benzoyl)glycyl)pyrrolidine-2-carboxamide], the IC50 was less than 0.1 µM.
As for `C[C@@H](NC(=O)[C@@H]1CC2(CN1C(=O)CNC(=O)c1cc3ccc1CCc1ccc(cc1)CC3)OCCO2)c1cc(C(=N)N)cs1` [Compound 66, (S)-7-((1,4(1,4)-dibenzenacyclohexaphane-1^2-carbonyl)glycyl)-N—((R)-1-(4-carbamimidoylthiophen-2-yl)ethyl)-1,4-dioxa-7-azaspiro[4.4]nonane-8-carboxamide], the figure is less than 0.1 µM; as for `C[C@@H](NC(=O)[C@@H]1C[C@]2(C)C[C@@H]2N1C(=O)CNC(=O)c1ccc(Oc2ccc(F)cc2)cc1)c1ccc(C(=N)N)s1` [Compound 67, (1S,3S,5S)—N—((R)-1-(5-carbamimidoylthiophen-2-yl)ethyl)-2-((4-(4-fluorophenoxy)benzoyl)glycyl)-5-methyl-2-azabicyclo[3.1.0]hexane-3-carboxamide], less than 0.1 µM; as for `COC[C@@]1(F)C[C@@H](C(=O)NCc2ccc(C(=N)N)s2)N(C(=O)CNC(=O)c2ccc(Oc3ccc(F)cc3)cc2)C1` [Compound 68, (2S,4R)—N-((5-carbamimidoylthiophen-2-yl)methyl)-4-fluoro-1-((4-(4-fluorophenoxy)benzoyl)glycyl)-4-(methoxymethyl)pyrrolidine-2-carboxamide], less than 0.1 µM.
